The assay deals with TNFα production. Nature of the assay: Measure of TNFα production inhibitory activity (serum TNFα after LPS challenge in mice). As to conditions: female BALB/c mice, 7 weeks; test compound intravenous; LPS 100 μg/mouse intraperitoneal; blood 90 minutes after LPS; serum TNFα by ELISA; read-out: ED50 (50% effective dose) for inhibition of serum level of TNFα. The assay is classed as in vivo. On the procedure: (i) Measure of TNFα Production Inhibitory Activity
Measure of TNFα production inhibitory activity was prepared according to procedures described previously (Kazuo Ohuchi, SEIBUTSUKAGAKUJIKKENKOZA, 12, 707 (1994) Hirokawa, Tokyo). Female mice (BALB/c, 7 weeks) were injected with test compounds via intravenous administration and with LPS (100 μg/mouse) (Bacto W. E. coli 055:B5; DIFCO Lab.) via in traperitoneal administration. At 90 minutes after LPS challenge, blood with heparin was obtained from abdominal aorta, and serum was stored at −80° C. Serum level of TNFα was determined by mouse cytokine ELISA kit (Genzyme). Inhibition and 50% effective dose (ED50) of test compounds were calculated as 100% of the difference of serum level of TNFα between in control and in LPS. ED50 of some compounds produced by the following examples were 0.01-100 mg/kg.
(ELISA stands for enzyme-linked immunosorbent assay.)

SMILES strings stand for the structures.

For the compound `CCCCCCCC(=O)N[C@@H](COP(=O)(O)O)c1ccccc1` [example 8], the ED50 (as a rule, the dose at which the effect has come halfway, by size or by number of responders) was 2.6 mg/kg.

(Values after US6495533B1, “Drugs containing phosphoric acid derivatives as the active ingredient” (Ono Pharmaceutical Co., Ltd., priority 1999, dated 2002).)
